Results reported in patent US12337037B2, “Taxol conjugate compounds, pharmaceutical compositions comprising the same, and methods for their use” (N1 Life, Inc, priority 2021, dated 2025).
Entries after “also recorded” stand apart in the source; their conditions may differ. Where two headings read alike, the source gives them in different places.

Columns and labels:
[1] = system: liver cancer Hep 3B cells; experiment: CCK-8 cytotoxicity / anti-proliferation assay, Hep 3B; assay type: cell-based; conditions: for Anti-proliferation %: 4 μM
Experimental: (§1) Cytotoxicity Assay—CCK8 Cancer Cells
The CCK-8 assay was applied to study the cytotoxicity of the peptide drug conjugates and their inhibition of proliferation of cancer cells. First, 2˜10×10^3 cells (depending on the rate of growth of different cell lines) with 100 μL, DMEM media were seeded in normal culture medium into each well of a 96-well plate. The cells were then cultured overnight at 37° C. with 4˜5% CO2. Different doses (4000, 2000, 1000, 500 nM for Hep3B, Hep G2 and MCF7/MBA-MD-231; 1000, 333.3, 100.0, 33.33, 3.333, 1.000, 0.333 nM for MCF7/ADR, 22Rv1, CNE1, HCT116, DLD-1) of Taxol and peptide drugs were added. After 48˜72 hour incubation, CCK-8 solution was added to each well. The cells were then incubated at 37° C. for 4 hours. The optical density was measured at 450/650 nm using a multiscan spectrometer (PerkinElmer's EnSpire Multilabel Plate Reader). The optical density is linearly proportional to the number of living cells in the sample: […]

[2] = system: Human ovarian cancer (SKOV-3-GFP) cells; experiment: Efficacy in metastatic ovarian cancer model (peritoneal disseminated metastasis); assay type: in vivo, Female athymic nude mice; conditions: for acute toxic effect / animal death: ovarian cancer model; for mean tumor fluorescence area as % of the Vehicle (PBS) group / Average tumor area on day 0 (MEAN ± SD) / Average tumor area on day 21 (MEAN ± SD) / Mean tumor mass (g) (MEAN ± SD) / Average tumor inhibitory rate (%) (MEAN ± SD): Taxol 10 mg/kg; for mean tumor fluorescence area as % of the Vehicle (PBS) group: Compound 3 / Compound 5 9.6 mg/kg IP Q5D; for Average tumor area on day 0 (MEAN ± SD): baseline fluorescence area; for Average tumor area on day 21 (MEAN ± SD): fluorescence area; for Mean tumor mass (g) (MEAN ± SD): conjugate 9.6 mg/kg IP Q5D; for Average tumor inhibitory rate (%) (MEAN ± SD): from final tumor weights
Experimental: The tumor samples were then stored in formalin solution.
Method: The method was the same as described for Biological Example 4.
Endpoint tumor load of each group: At Day 21 after administration, the tumor load of each group was calculated by dissecting and weighing the tumor in the abdominal cavity. The vehicle was the control.
Tumor inhibitory rate (IR): Tumor IR was calculated based on the final average tumor weights according to the formula: IR (%)=(1-treatment(t)/control(c))×100

[3] = system: CNE1 nasopharyngeal carcinoma cell line; experiment: cells; conditions: read-out: IC50 nM
Experimental: as §1
(§2) The CCK-8 assay was applied to study the cytotoxicity of the peptide drug conjugates and their inhibition of proliferation of cancer cells. First, 2˜10×10^3 cells (depending on the rate of growth of different cell lines) with 100 μL, DMEM media were seeded in normal culture medium into each well of a 96-well plate. The cells were then cultured overnight at 37° C. with 4˜5% CO2. Different doses (4000, 2000, 1000, 500 nM for Hep3B, Hep G2 and MCF7/MBA-MD-231; 1000, 333.3, 100.0, 33.33, 3.333, 1.000, 0.333 nM for MCF7/ADR, 22Rv1, CNE1, HCT116, DLD-1) of Taxol and peptide drugs were added. After 48˜72 hour incubation, CCK-8 solution was added to each well. The cells were then incubated at 37° C. for 4 hours. The optical density was measured at 450/650 nm using a multiscan spectrometer (PerkinElmer's EnSpire Multilabel Plate Reader). The optical density is linearly proportional to the number of living cells in the sample:
(§3) The plate layout for MCF7/ADR, 22Rv1, CNE1, HCT116, DLD-1 cell lines is shown below.

[4] = system: 22Rv1 human prostate carcinoma epithelial cell line; experiment: cells
Experimental: as §1, §2, §3

[5] = system: MCF7/ADR multidrug-resistant breast cancer cell; experiment: cells; conditions: read-out: IC50 nM
Experimental: as §1, §2, §3

[6] = system: DLD-1 colorectal adenocarcinoma cell line; experiment: cells
Experimental: as §1, §2, §3

[7] = system: HCT116 human colorectal carcinoma cell; experiment: cells
Experimental: as §1, §2, §3

[8] = Stability in plasma, mouse; assay type: in vitro ADME; conditions: for half-life: 37° C., read-out: Mean T1/2 (converted)
Experimental: (§4) Working solutions of test compounds were prepared in PBS (pH 7.4). Propantheline was used as positive control for human, monkey, dog and mouse plasma in the assay. Mevinolin was used as positive control for rat plasma in this assay. 1 mM propantheline working solution was prepared in acetonitrile. 1 mM mevinolin working solution was prepared in DMSO. Incubation buffer of 475 μL plasma for each cell was added into the incubation plate and pre-warmed at 37° C. for 15 minutes. After the pre-incubation, 25 μL of working solution (test compounds or control compounds) was spiked to plasma. For Compound 5 and Compound 3, the final concentration of organic concentration was 0%. For Taxol, the final concentration of organic solvents was 0.25%. The assay was performed in duplicate. The reaction samples were incubated at 37° C. Aliquots of 50 μL were taken from the reaction samples at 0, 0.25, 0.5, 1, 2, 4, 6, 8 and 24 hours. The reactions were stopped by the addition of 450 μL of ice-cold quench solution (methanol with 2% FA containing internal standards). All samples were vortexed for 10 minutes, following by centrifugation at 3,220 g for 30 minutes to precipitate proteins. 100 μL of the supernatant from each well was transferred to a new plate. The supernatant was diluted with ultrapure water. Samples were analyzed by LC-MS/MS. All calculations were carried out using Microsoft Excel. Peak area ratios were determined from extracted ion chromatograms. Percent compounds remaining at each time point were calculated by the following equation: Remaining Percentaget min(%)=Peak Area Ratiot min/Peak Area Ratio0 min×100
(§5) Peak Area Ratiot min is peak area ratio of control and test compounds at t min; and
(§6) Peak Area Ratio0 min is peak area ratio of control and test compounds at zero time point.
(§7) The slope value, k, was determined by linear regression of the natural logarithm of the remaining percentage of the parent drug vs. incubation time curve.
(§8) The in vitro half-life (in vitro t1/2) was determined from the slope value: in vitro t1/2=(0.693/k)

[9] = Stability in plasma, human; assay type: in vitro ADME; conditions: for half-life: 37° C., read-out: Mean T1/2 (converted)
Experimental: as §4, §5, §6, §7, §8

[10] = Table 8B (Compound 5 set), Compd 5 9.6 mg/kg IP Q5D
[11] = Table 9A (titled Compound 3 set), Day 21
[12] = Table 10B (Compound 5 set), Day 21, Compd 5 9.6 mg/kg IP Q5D
[13] = read-out: IC50 nM, HCT116 cells
[14] = Table 8A (Compound 3 set), Compd 3 9.6 mg/kg IP Q5D
[15] = Table 9B (titled Compound 5 set), Day 21
[16] = Table 10A (Compound 3 set), Day 21, Compd 3 9.6 mg/kg IP Q5D

SMILES | Anti-proliferation % [1] | acute toxic effect / animal death ([2]; 9.6 mg/kg IP Q5D) | mean tumor fluorescence area as % of the Vehicle (PBS) group ([2]; Day 21) | Average tumor area on day 0 (MEAN ± SD) [2, 10] | Average tumor area on day 21 (MEAN ± SD) [2, 10] | Mean tumor mass (g) (MEAN ± SD) [2, 11] | Average tumor inhibitory rate (%) (MEAN ± SD) [2, 12] | IC50 ([3]; CNE1 cells) | IC50 ([4]; read-out: IC50 nM, 22Rv1 cells) | IC50 ([5]; MCF7/ADR cells) | IC50 ([6]; read-out: IC50 nM, DLD-1 cells) | IC50 [7, 13] | half-life [8] | half-life [9] | Average tumor area on day 0 (MEAN ± SD) [2, 14] | Average tumor area on day 21 (MEAN ± SD) [2, 14] | Mean tumor mass (g) (MEAN ± SD) [2, 15] | Average tumor inhibitory rate (%) (MEAN ± SD) [2, 16] | also measured
CC(=O)N[C@H](CSSCCCC(=O)O[C@@H](C(=O)O[C@H]1C[C@@]2(O)[C@@H](OC(=O)c3ccccc3)[C@@H]3[C@]4(OC(C)=O)CO[C@@H]4C[C@H](O)[C@@]3(C)C(=O)[C@H](OC(C)=O)C(=C1C)C2(C)C)[C@@H](NC(=O)c1ccccc1)c1ccccc1)C(=O)N[C@H](CCCNC(=N)N)C(=O)N[C@H](CCCNC(=N)N)C(=O)N[C@H](CCCNC(=N)N)C(=O)N[C@H](CCCNC(=N)N)C(=O)N[C@H](CCCNC(=N)N)C(=O)N[C@H](CCCNC(=N)N)C(=O)N[C@H](CCCNC(=N)N)C(=O)N[C@H](CCCNC(=N)N)C(N)=O [Compound 5, Ac-D-Cysteine (paclitaxel-4-mercaptobutanoate)-D-Arginine8-NH2] | 23.2% | caused animal death; also recorded: one animal died at Day 18 | 10% | 24.9 ± 6.6 | 28.7 ± 19.8 | 0.178 ± 0.143 g | 79±11% | 19.3 nM | 29.3 nM | > 1000 nM | 110 nM | 23.5 nM | 0.79 h | 1.03 h |  |  |  |  | tumor inhibitory effect, less effective than Taxol ([2]; 9.6 mg/kg vs Taxol 10 mg/kg): about 10%; Average tumor inhibitory rate (%) (MEAN ± SD) ([2]; Table 10B (Compound 5 set), Day 21, Compd 5 9.6 mg/kg IP Q5D, listed as Compd 5): 79 ± 11%
CC(=O)N[C@@H](CSSCCCC(=O)OC(C(=O)O[C@H]1C[C@@]2(O)[C@@H](OC(=O)c3ccccc3)[C@@H]3[C@]4(OC(C)=O)CO[C@@H]4C[C@H](O)[C@@]3(C)C(=O)[C@H](OC(C)=O)C(=C1C)C2(C)C)[C@@H](NC(=O)c1ccccc1)c1ccccc1)C(=O)N[C@H](CCCNC(=N)N)C(=O)N[C@H](CCCNC(=N)N)C(=O)N[C@H](CCCNC(=N)N)C(=O)N[C@H](CCCNC(=N)N)C(=O)N[C@H](CCCNC(=N)N)C(=O)N[C@H](CCCNC(=N)N)C(=O)N[C@H](CCCNC(=N)N)C(=O)N[C@H](CCCNC(=N)N)C(N)=O (stereo partly drawn) [Compound 3, Ac-L-Cysteine (paclitaxel-4-mercaptobutanoate)-D-Arginine8-NH2] | 36.0% | no obvious acute toxic effect | about 20% |  |  |  |  | 15.9 nM | 21.6 nM | 438 nM | 62 nM | 21.5 nM | 1.06 h | 1.22 h | 18.6 ± 5.3 | 30.9 ± 24.2 | 0.2555 ± 0.1388 g | 90±8% | cancer cell inhibition compared to Compound 5 (FIG. 2A) ([1]; all tested concentrations (500-4000 nM)): substantially superior to cancer cell inhibition compared to Compound 5 at all tested concentrations; tumor inhibition effect, better than Compound 5 ([2]; 9.6 mg/kg): at least 10%; average tumor fluorescence area as % of the Taxol (10 mg/kg) group ([2]; Day 21, 9.6 mg/kg IP Q5D): about 100%; average tumor weight as % of the Vehicle group ([2]; Day 21, 9.6 mg/kg IP Q5D): about 10%; Average tumor inhibitory rate (%) (MEAN ± SD) ([2]; Table 10A (Compound 3 set), Day 21, Compd 3 9.6 mg/kg IP Q5D, listed as Compd 3): 90 ± 8%; Percent Increase of T1/2, Compound 3 over Compound 5 [8]: 34.18%; Percent Increase of T1/2, Compound 3 over Compound 5 [9]: 18.45%
CC(=O)O[C@H]1C(=O)[C@@]2(C)[C@H]([C@H](OC(=O)c3ccccc3)[C@]3(O)C[C@H](OC(=O)[C@H](O)[C@@H](NC(=O)c4ccccc4)c4ccccc4)C(C)=C1C3(C)C)[C@]1(OC(C)=O)CO[C@@H]1C[C@@H]2O [Taxol, paclitaxel] | 11.5% |  | 8-16% | 22.8 ± 4.1 | 22.7 ± 15.5 | 0.174 ± 0.141 g | 84 ± 10% |  |  |  |  |  |  |  | 18.4 ± 3.3 | 24.8 ± 27.1 | 0.1970 ± 0.1248 g | 90 ± 8% | IC50 [3]: 1.12 nM; IC50 ([4]; Homo sapiens, 22Rv1, read-out: IC50 nM): 4.95 nM; IC50 ([5]; Homo sapiens, NCI/ADR-RES): > 1000 nM; IC50 ([6]; Homo sapiens, DLD-1, read-out: IC50 nM): 9.98 nM; IC50 ([7]; Homo sapiens, HCT-116, read-out: IC50 nM): 2.79 nM
